Assay results published in patent publication EP0839799A1, “2-HYDROXYPHENYLALKYLAMINE DERIVATIVES AND MAILLARD REACTION INHIBITORS” (KISSEI PHARMACEUTICAL CO., LTD., priority 1995, dated 1996).

Columns and labels:
[1] = test system: lysozyme; assay: Maillard reaction inhibiting activity test (lysozyme and fructose, dimer formation by SDS-PAGE/densitometry); type: biochemical; details: lysozyme 10 mg/ml, fructose 200mM, 0.5M sodium phosphate buffer pH7.4, 37°C, 1 week, inhibition of lysozyme dimer formation; for Inhibiting Activity (%) Concentration (0.2mM): test compound 0.2mM; for Inhibiting Activity (%) Concentration (2mM): test compound 2mM
Description: The test compound (0.2mM or 2mM), lysozyme (lOmg/ml) and fructose (200mM) were dissolved in 0.5M sodium phosphate buffer (pH7.4), and the solution was incubated at 37°C for l week. After incubation, the sample was separated by SDS-PAGE and stained with Coomassie Brilliant Blue R-250. The percentage of formed dimer to total proteins was measured by densitometry. Inhibiting activities of the test compounds were evaluated from comparing the percentage of formed dimer in the presence of the test compound with that in the absence of the test compound.

[2] = test system: AGE content in plasma proteins; assay: Inhibition assay for AGE formation in vivo (AGE content in plasma proteins by ELISA using anti-AGE antibody); set-up: species or system male SD rats; details: STZ-induced diabetic rats, 4 weeks, relative to untreated rats (as 100% control)
Description: Diabetes was induced in male SD rats, 6 weeks of age, by intravenous single injection of streptozotocin (STZ) (50mg/kg) into tail. One week after diabetes induction, α -amino-2-hydroxyphenylacetic acid.hydrochloride or aminoguanidine was given to the diabetic rats by daily oral administration at dosage of 50mg/kg or lOOmg/kg. After 4 weeks of administration, blood samples were collected and AGE content in plasma proteins was measured by ELISA using anti-AGE antibody. AGE content in drug-treated rats were estimated compared with the average content of untreated rats (as 100% control).

[3] = test system: Male SD rats; assay: Acute toxicity test; type: in vivo; details: for hematological examinations / death: 2000 mg/kg; for death: single administration 2000 mg/kg, until 7 days after administration
Description: Male SD rats, 6 weeks of age and weighing between 140g and 165 g, were conditioned to an overnight fast. α -Amino-2 hydroxyphenylacetic acid.hydrochloride suspended in 0.5% of CMC were given to the rats at a dosage of 2000 mg/kg. Control group rats received 0.5% of CMC alone.
Six hours after administration, all rats were allowed free access to food and water. Seven days after administration, blood samples were collected and tested with hematological examinations. Plasma samples were tested with blood biochemical examinations.

[4] = test system: Male SD rats; assay: Toxicity test by long-term administration; type: in vivo
Description: Male SD rats, 6 weeks of age, received STZ (50mg/kg) by single intravenous injection into the tail and were made diabetic. One week after STZ injection, α -amino-2-hydroxyphenylacetic acid-hydrochloride suspended in 0.5% of CMC was given to the diabetic rats by daily oral administration at a dosage of lOOmg/kg. Rats in the control group received O.5% of CMC alone. Compared with the control group, significant reduction in weight and significant increase in number of dead animals were not observed until ten weeks after administration.

[5] = STZ diabetic rats, 100mg/kg daily oral, until ten weeks, versus control group

| Compound | Inhibiting Activity (%) Concentration (0.2mM) [1] [%] | Inhibiting Activity (%) Concentration (2mM) [1] [%] | other results |
| --- | --- | --- | --- |
| Cl.NC(C(=O)NCc1ccccc1)c1ccccc1O (stereo not drawn) [Example 8, N-Benzyl-α-amino-2-hydroxyphenylacetamide-hydrochloride] | 13.9 | 55.3 |  |
| Cl.NC(=O)C(N)c1ccccc1O (stereo not drawn) [Example 14, α -Amino-2-hydroxyphenylacetamide-hydrochloride] | 21.4 | 87.6 |  |
| COC(=O)C(N)c1cc(O)ccc1O (stereo not drawn) [Example 5, Methyl α -amino-2,5-dihydroxyphenylacetate] |  | 48.3 |  |
| NC(C(=O)O)c1ccccc1O (single isomer, unassigned) [Example 12, α -Amino-2-hydroxyphenylacetic acid (optical isomer)] | 22.4 | 83.5 |  |
| NC(=O)C(N)c1ccccc1O (stereo not drawn) [Example 7, α -Amino-2-hydroxyphenylacetamide] | 38.7 | 89.3 |  |
| NC(CC(=O)O)c1ccccc1O (centres unmarked) [Example 10, 3-Amino-3-(2-hydroxyphenyl)propionic acid] | 15.0 |  |  |
| NC(C(=O)O)c1ccccc1O (single isomer, unassigned) [Example 13, α -Amino-2-hydroxyphenylacetic acid (optical isomer)] | 24.0 | 86.3 |  |
| N=C(N)NN [aminoguanidine, reference compound] | 2.9 | 17.2 | AGE content ([2]; aminoguanidine daily oral, dose not stated in the table (50mg/kg or 100mg/kg per method)): 88.8% |
| Cl.NC(C(=O)O)c1cc(Cl)ccc1O (stereo not drawn) [Example 3, α -Amino-5-chloro-2-hydroxyphenylacetic acid-hydrochloride] | 38.8 | 88.4 |  |
| COc1ccc(O)c(C(N)C(=O)O)c1.Cl (stereo not drawn) [Example 4, α -Amino-2-hydroxy-5-methoxyphenylacetic acid-hydrochloride] | 30.9 | 87.4 |  |
| CC(C)OC(=O)CCC(N)c1ccccc1O.Cl (centres unmarked) [Example 15, Isopropyl 4-amino-4-(2-hydroxyphenyl)butyrate.hydrochloride] | 2.7 |  |  |
| Cl.NC(C(=O)NCCc1ccccc1)c1ccccc1O (stereo not drawn) [Example 9, N-(2-Phenethyl)-α-amino-2-hydroxyphenylacetamidehydrochloride] |  | 80.0 |  |
| CN(C)C(=O)C(N)c1ccccc1O (stereo not drawn) [Example 6, N,N-Dimethyl-α -amino-2-hydroxyphenylacetamide] | 13.0 | 82.1 |  |
| Cl.NC(C(=O)O)c1ccccc1O (stereo not drawn) [Example 1, α -Amino-2-hydroxyphenylacetic acid.hydrochloride] | 21.2 | 86.1 | AGE content ([2]; 50 mg/kg daily oral): 81.6%; AGE content ([2]; 100mg/kg daily oral): 62.4%; blood biochemical examinations ([3]; 2000 mg/kg single dose, seven days after administration, versus control group): no significant difference was observed; hematological examinations ([3]; 2000 mg/kg single dose, seven days after administration, versus control group, listed as α -Amino-2 hydroxyphenylacetic acid.hydrochloride): no significant difference was observed; hematological examinations ([3]; 2000 mg/kg single dose, seven days after administration, versus control group, listed as α -amino-2-hydroxyphenylacetic acid hydrochloride): a significant effect was not observed; behavior disorder ([3]; 2000 mg/kg single dose, until 6 hours after administration): behavior disorder was not observed; death ([3]; listed as α -Amino-2 hydroxyphenylacetic acid.hydrochloride): all animals did not die; death ([3]; listed as α -amino-2-hydroxyphenylacetic acid hydrochloride): no death was observed; increase in number of dead animals [4, 5]: not observed; reduction in weight [4, 5]: not observed; toxicity and side effects ([4]; rats, 100mg/kg/day for ten consecutive weeks): significant toxicity and side effects were not observed |
| COC(=O)C(N)c1ccccc1O.Cl (stereo not drawn) [Example 2, Methyl α -amino-2-hydroxyphenylacetate-hydrochloride] | 30.6 | 67.5 |  |
